# Where “and” joins values, the source holds several entries; their conditions need not be identical. Equal entries are not always repeated. Calls of active or inactive are those of the source.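 Rule for the calls: active = EC50 no more than a set limit of log units above the highest dose; inactive = the rest.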
# Biological target: S. pyogenes SKKanGAS, kanamycin survival, BacTiterGlo, 6 h
# Assay: SKKanGAS survival reduction under kanamycin, dose response, streptokinase promoter inhibitor project, SKKanGAS strain, luminescence, dose confirmation (AID 1902);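 note: lower survival reflects blocked streptokinase promoter driving kanamycin resistance gene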
row,Structure (SMILES),EC50
1,CCOc1ccc(NC(=S)NNC(=S)Nc2cccc(C(F)(F)F)c2)cc1,> 15 µM (inactive)
2,Cc1cc(N/N=C/c2cccc(Cl)c2)nc(-n2nc(C)cc2C)n1,0.966 µM
3,Cc1c(Cl)c([N+](=O)[O-])nn1Cc1ccc(C(=O)N/N=C\c2cc(Cl)ccc2O)o1,1.48 µM
4,CCOc1ccc2[nH]c3c(N4CCc5ccccc5C4)ncnc3c2c1,7.94 µM
5,CCC(C)Sc1cc(-c2nc3ccccn3c2NC2CCCCC2)ccc1OC (configuration not stated),2.94 µM
6,FC(F)(F)c1cc(-c2ccccc2)nc(N2CCCCCC2)n1,3.93 µM
7,O=c1c2ccccc2sn1-c1ccccc1,1.11 µM
8,NNC(=O)CSc1nc(-c2ccccc2)nc2c1CCCC2,> 15 µM (inactive)
9,CC[C@@H](C)[C@H](NC(=O)OC(C)(C)C)c1nnc(S(=O)(=O)Cc2cc(C)ccc2C)o1,9.66 µM
10,COc1ccc(-c2cc(-c3ccc(Cl)cc3)n[nH]2)c(O)c1,8.75 µM
11,CCc1c(C2(O)CCCCC2)[nH]c2c(C(=O)OC)cc(Cl)cc12,4.12 µM
12,C=C(C)COc1ccc(-c2n[nH]c(C)c2-c2ccc(Br)cc2)c(O)c1,2.21 µM
13,COc1ccc(C(=O)Nc2cccc(-c3ccc(N4CCOCC4)nn3)c2)cc1,> 15 µM (inactive)
14,Cc1noc(C)c1CSc1nc2sc(C)c(C)c2c(=O)n1C1CCCC1,2.94 µM
15,CCC1=NN(C(=O)c2ccccc2O)C(O)(c2ccccc2)C1 (configuration not stated),1.94 µM
16,O=[N+]([O-])c1ccc(-c2cnc(SC(c3ccccc3)c3ccccc3)[nH]2)cc1,11 µM
17,CCC(CC)c1nnc(NC(=O)c2ccc3ccccc3n2)s1,0.72 µM
18,COc1ccc(NC(=S)N=Nc2c(O)[nH]c3ccccc23)cc1,1.09 µM
19,O=C(CSc1ccc(Cl)cc1)NC1=NN(c2ccccc2)C(=O)C1,5.54 µM
20,O=C1CCCc2oc3c(cc(NS(=O)(=O)c4ccc5c6c(cccc46)C(=O)N5)c4ccccc43)c21,4.02 µM
21,c1ccc(CN2CCN(c3nc4ccccc4c4ccccc34)CC2)cc1,5.26 µM
22,CC/C(=C\C1CCCCC1)C(NP(=O)(c1ccccc1)c1ccccc1)c1ccccc1 (configuration not stated),1.14 µM

row,Structure (SMILES),EC50
1,CN(c1ccccc1)S(=O)(=O)c1ccc(C(=O)Nc2nnc(-c3ccc(F)cc3)o2)cc1,0.225 µM
2,CC(C)N=c1cc2n(-c3ccc(Cl)cc3)c3ccccc3nc-2cc1Nc1ccc(Cl)cc1,1.24 µM
3,Cc1cccc(NC(=O)NCc2ccc3c(c2)OCO3)c1,> 15 µM (inactive)
4,Cc1cc(C)c2c(n1)sc1c(=O)n(CC(=O)c3ccccc3)cnc12,1.55 µM
5,CCOc1ccc(C(=O)NC(=S)Nc2ccc(N3CCOCC3)c(Cl)c2)cc1[N+](=O)[O-],0.714 µM
6,Cc1ccccc1Nc1c(-c2ccccn2)nc2c(C)cccn12,0.397 µM
7,COc1ccc(C(=O)N/N=C/c2cc(Br)ccc2O)cc1OC,1.28 µM
8,Cn1ncc2c(Nc3ccc(Cl)c(Cl)c3)ncnc21,4.82 µM
9,CC1CC(NC(=O)c2c(O)nc3sccn3c2=O)CC(C)(C)C1 (configuration not stated),7.03 µM
10,CCCCn1c(O)c(C(CC)=Nc2ccc3c(c2)CCC3)c(=O)[nH]c1=O,6.01 µM
11,Cc1ccc(C(=O)NC(=S)N(C)C2CCCCC2)cc1Br,2.96 µM
12,O=C1c2ccccc2CCC12N=NCC2c1ccc(Br)cc1 (configuration not stated),14.8 µM
13,CC1CCCCC1NC(=O)CCn1ccc2cc(S(=O)(=O)N3CCCC3)ccc21 (configuration not stated),> 15 µM (inactive)
14,CC(NS(=O)(=O)/C=C/c1ccccc1)C(=O)O (configuration not stated),> 15 µM (inactive)
15,CCOC(=O)c1sc(NC(=O)Nc2cccc(Cl)c2)cc1C,2.39 µM
16,COc1ccc(OCCCC(=O)Nc2nc(-c3ccccn3)cs2)cc1,0.309 µM
17,O=C(c1ccc(Cl)cc1)c1cnc(Nc2ccccc2Cl)s1,6.77 µM
18,Cc1ccc(N/N=C2\CS(=O)(=O)N(C)c3ccsc32)cc1,1.49 µM
19,Cc1ccccc1/C=N/Nc1nc2ccccc2[nH]1,5.3 µM
20,Cc1ccc(-n2sc3ccccc3c2=O)cc1,1.27 µM
21,CCOC(=O)c1nn(-c2cccc(OC)c2)c2nc(Nc3ccccc3)cc(=O)n12,4.15 µM
22,CCc1c(C)nc2cc(-c3ccc(OC)c(OC)c3)nn2c1N1CCC(C)CC1,7.56 µM

row,Structure (SMILES),EC50
1,N#Cc1c(-c2ccccc2)nc(SCc2ccc(Cl)cc2)[nH]c1=O,6.47 µM
2,CCC(C)Nc1nc(N)c([N+](=O)[O-])c(Nc2cc(OC)ccc2OC)n1 (configuration not stated),1.95 µM
3,CCCNC1=C(C)C(=O)C2=C(C1=O)C(COC(N)=O)[C@]1(OC)C3NC3CN21 (some centres not stated),< 0.06 µM
4,CC(C)=CCCC1(C)C=Cc2c(ccc3c2[nH]c2cc(O)c(C)cc23)O1 (configuration not stated),3.04 µM
5,CCOc1c(OC(C)=O)ccc(/C=C/c2ccc3cccc(OC(C)=O)c3n2)c1[N+](=O)[O-],1.6 µM
6,Cc1ccc(C)c(-c2nnc(NC(=O)CCS(=O)(=O)c3ccccc3)o2)c1,8.64 µM
7,C=CCn1c(O)c(C(CC)=Nc2ccc(N(CC)CC)cc2)c(=O)[nH]c1=O,1.66 µM
8,O=C(O)c1ccc(N2C(=O)CC(SC(=NCc3ccc4c(c3)OCO4)Nc3ccc(F)cc3)C2=O)cc1 (configuration not stated),8.24 µM
9,COc1cccc(/C=C/C(=O)OCC(=O)Nc2nnc(-c3ccccc3)o2)c1,4.21 µM
10,FC(F)(F)c1cc(-c2ccco2)nc(NCc2ccc(Cl)cc2)n1,7.1 µM
11,CC1(C)S[C@@H]2[C@H](NC(=O)COc3ccccc3)C(=O)N2C1C(=O)OCC1CCCCC1 (some centres not stated),8 µM
12,COc1ccc(N2CCN(C(=O)c3cc(C)oc3C)CC2)cc1,> 15 µM (inactive)
13,N#Cc1ccc(-c2ccccc2)nc1SCC(=O)c1cc2ccccc2oc1=O,0.596 µM
14,CC(C)/C(=N/Nc1ccccc1[N+](=O)[O-])c1ccccc1,6.51 µM
15,Cc1ccc(S(=O)(=O)N2c3ccccc3OCC2C(C)(C)C)cc1 (configuration not stated),2.59 µM
16,COc1ccc(-c2cc(C(F)(F)F)nc(NCc3cccs3)n2)cc1,4.95 µM
17,S=C1NC(C23CC4CC(CC(C4)C2)C3)=CC(c2ccc3c(c2)OCO3)N1 (configuration not stated),6.76 µM
18,COc1cc(/C=N/NC(=O)c2cc(-c3c(C)nn(-c4ccccc4)c3C)n[nH]2)ccc1O,2.97 µM
19,Cc1ncc(CO)c(/C=N/NC(=S)Nc2ccc(Cl)c(Cl)c2)c1O,5.9 µM
20,O=C(Nc1ccc(OC(F)(F)F)cc1)N1CCN(c2ccnc3cc(Cl)ccc23)CC1,9.37 µM
21,O=C(/C=C/c1ccccc1)NC(=S)NNC(=O)Cc1cccs1,1.47 µM
22,Cc1c(C(=O)N/N=C/c2ccc(Cl)cc2)[nH]c2ccc(Cl)cc12,2.71 µM

row,Structure (SMILES),EC50
1,O=C1c2cccc3cccc(c23)C(=O)N1CC1CCN(CC(O)COc2ccc3ccccc3c2)CC1 (configuration not stated),6.84 µM
2,COc1ccc(C(=O)NC(=S)Nc2ccc(N3CCOCC3)c(Cl)c2)cc1[N+](=O)[O-],1.97 µM
3,CC1CCCN(S(=O)(=O)c2ccc(C(=O)Nc3nnc(C4CC4)o3)cc2)C1 (configuration not stated),3.3 µM
4,Cc1cccc(NCC(=O)N/N=C\c2cccc(Oc3ccccc3)c2)c1,11.9 µM
5,O=C1C=CC(=O)N1CCNc1ncc(C(F)(F)F)cc1Cl,10.4 µM
6,Cc1cccnc1NCc1ccc(O)c2ncccc12,5.65 µM
7,CCc1nnc(NC(=O)c2ccc(S(=O)(=O)N3CCCc4ccccc43)cc2)o1,1.68 µM
8,COc1cccc(-c2nnc(NC(=O)c3ccc(S(=O)(=O)N4CC(C)OC(C)C4)cc3)o2)c1 (configuration not stated),1.16 µM
9,Cc1cc(N/N=C/c2c(O)ccc3ccccc23)nc(-c2ccccc2O)n1,0.257 µM
10,COc1ccccc1-n1c(SCC(=O)Nc2ccc(Br)cc2)nc(O)cc1=O,10.3 µM
11,Oc1cccc2ccc(/C=C/c3cccs3)nc12,2.91 µM
12,CN(C)/C=C(\C=N\OCc1ccc(Cl)cc1Cl)C(=O)Nc1ccc(Cl)c(Cl)c1,0.803 µM
13,C=CCn1c(O)c(C(C)=Nc2ccc(N(CC)CC)cc2)c(=O)[nH]c1=O,5.73 µM
14,O=[N+]([O-])c1ccc(O)c(Nc2ncnc3ccc(Br)cc23)c1,3.32 µM
15,Cc1cccc(Nc2nnc(-c3ccc(N4CCOCC4)c([N+](=O)[O-])c3)c3ccccc23)c1,4.52 µM
16,CC(C)(C)c1ccc(C(=O)NCc2nnc(SCC(=O)NC3CCCC3)o2)cc1,> 15 µM (inactive)
17,C=C(C)CNC(=S)NNC(=O)CCn1c2ccc(Cl)cc2c2cc(Cl)ccc21,2.31 µM
18,Cn1c2ccccc2c(=O)c2cc(C#Cc3ccc(N)cc3)ccc21,1.35 µM
19,Cc1[nH]c(-c2ccc(F)cc2)cc1C(=O)N1CCN(c2cccc(Cl)c2)CC1,4.92 µM
20,Cc1ccccc1OCCCCc1c(C)n[nH]c1C,7.37 µM
21,CC(C)(C)c1ccc(OCC(=O)NNC(=S)NC(=O)c2ccco2)c(Br)c1,< 0.06 µM
22,COc1ccc(-c2cc3nc4n(c(=O)c3s2)CCC4)cc1,0.734 µM

row,Structure (SMILES),EC50
1,CCCCCCCn1c(NC(=O)CC)nc2ccccc21,0.342 µM
2,Cc1nn(-c2ccccc2)c(C)c1/C=N/Nc1nc2ccccc2[nH]1,9.71 µM
3,CC12CC3(C)CC(C)(C1)CC(C(=O)NC1=NCCS1)(C2)C3,0.992 µM
4,O=c1cc(-c2ccccc2)nc2c(-c3ccccc3)c(C(F)(F)F)[nH]n12,3.23 µM
5,CNC(=S)N1CCN(c2c(F)cc3c(=O)c(C(=O)O)cn(C4CC4)c3c2OC)CC1C (configuration not stated),0.16 µM
6,Cc1cccc(CS(=O)(=O)c2nnc([C@H](Cc3ccccc3)NC(=O)OC(C)(C)C)o2)c1,3.88 µM
7,Cc1ccccc1/C=C1\Sc2ccc(C(=O)N3CCN(c4ccccn4)CC3)cc2N(C)C1=O,6.47 µM
8,Cc1ccccc1-c1cc(C(=O)Nc2sc(C(=O)OC(C)C)c(C)c2C#N)c2ccccc2n1,5.49 µM
9,O=C(CSc1nnc(CNC(=O)c2c(F)cccc2F)o1)NCc1ccccc1,> 15 µM (inactive)
10,Cc1nn(-c2ccccc2)c(C)c1/C=N/NC(=O)c1cc(-c2cccc3ccccc23)n[nH]1,6.54 µM
11,CC(C)c1ccc(-n2cccc2/C=C2/C(=N)N3C=CSC3=NC2=O)cc1,3.28 µM
12,COc1ccc(C2CC(c3ccccc3)=NN2C(=O)c2cccs2)cc1 (configuration not stated),7.84 µM
13,CC1=CC(C)(C)n2c(O)c(N=N)c3c(C)c(C)cc1c32,5.67 µM
14,O=C(Cn1nc2ccccc2n1)N/N=C/c1cc([N+](=O)[O-])ccc1O,0.73 µM
15,COc1ccc(Cl)cc1/C=C/c1ccc2cccc(O)c2n1,0.388 µM
16,CN(C)c1ccnc2c[cH-]cc12.[Fe].c1ccc(-[c-]2[c-](-c3ccccc3)[c-](-c3ccccc3)[c-](-c3ccccc3)[c-]2-c2ccccc2)cc1 (configuration not stated),1.96 µM and 0.56 µM
17,CCCCCCCCCc1nc2sc3c(c2c(=O)n1NC(=O)c1ccccc1[N+](=O)[O-])CC(C)(C)OC3,2.75 µM
18,NC1CCN(c2nc3c(cc2F)c(=O)c(C(=O)O)cn3-c2ccc(F)cc2F)C1 (configuration not stated),0.296 µM
19,CS(=O)(=O)c1ccc2nc(NC(=O)c3ccc(NS(=O)(=O)c4ccc(F)c(F)c4)cc3)sc2c1,0.622 µM

# Reference: PubChem BioAssay AID1902 (Broad Institute, 2009)
